Assay results: the Kinase Knowledgebase extract (Sharma et al. 2016)

What follows are molecules tested against PIK3CA (human) (UniProt P42336) (assay: Assessment of PIK3CA Kinase Activity).
PIK3CA (human), sequence (P42336 whole entry, looked up): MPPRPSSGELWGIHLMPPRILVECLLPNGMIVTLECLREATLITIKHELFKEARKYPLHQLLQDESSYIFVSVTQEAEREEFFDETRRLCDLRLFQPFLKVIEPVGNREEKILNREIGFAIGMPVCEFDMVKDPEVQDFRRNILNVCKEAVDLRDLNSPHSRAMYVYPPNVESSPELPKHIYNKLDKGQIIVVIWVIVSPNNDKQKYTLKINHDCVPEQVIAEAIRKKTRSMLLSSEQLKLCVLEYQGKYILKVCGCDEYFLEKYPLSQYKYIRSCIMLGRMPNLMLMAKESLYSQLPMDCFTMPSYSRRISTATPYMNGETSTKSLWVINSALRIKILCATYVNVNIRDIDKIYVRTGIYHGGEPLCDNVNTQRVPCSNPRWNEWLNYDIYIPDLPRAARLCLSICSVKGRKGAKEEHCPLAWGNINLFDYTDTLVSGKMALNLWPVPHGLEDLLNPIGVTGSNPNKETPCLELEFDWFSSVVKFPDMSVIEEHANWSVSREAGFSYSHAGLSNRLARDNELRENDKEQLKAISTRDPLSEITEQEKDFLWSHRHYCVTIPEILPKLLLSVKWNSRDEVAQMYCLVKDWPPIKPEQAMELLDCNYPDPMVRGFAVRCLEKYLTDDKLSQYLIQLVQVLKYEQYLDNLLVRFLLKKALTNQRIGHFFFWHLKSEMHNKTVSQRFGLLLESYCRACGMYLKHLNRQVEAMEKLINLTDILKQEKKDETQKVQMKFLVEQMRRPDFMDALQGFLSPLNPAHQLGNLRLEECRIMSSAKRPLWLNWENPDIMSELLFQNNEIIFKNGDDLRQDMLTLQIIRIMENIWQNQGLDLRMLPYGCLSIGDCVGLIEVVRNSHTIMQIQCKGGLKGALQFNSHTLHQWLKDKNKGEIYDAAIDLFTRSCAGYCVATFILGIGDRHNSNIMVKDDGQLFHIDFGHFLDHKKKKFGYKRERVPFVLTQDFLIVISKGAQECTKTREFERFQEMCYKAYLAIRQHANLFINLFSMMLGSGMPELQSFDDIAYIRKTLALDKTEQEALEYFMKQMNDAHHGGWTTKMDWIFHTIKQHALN

IC50, < 1000 nM:
CC(C)n1ncnc1-c1cn2c(n1)-c1ccc(C3CN(CC(=O)N(C)C)C3)cc1OCC2
CC(C)n1ncnc1-c1cn2c(n1)-c1ccc(-c3cn[nH]c3)cc1OCC2
CC(C)n1ncnc1-c1cn2c(n1)-c1cnc(NCC(N)=O)cc1OCC2
CC(C)n1ncnc1-c1cn2c(n1)-c1ccc(N3CCN(CC(=O)N(C)C)CC3)nc1OCC2
CC(C)n1nc(N)nc1-c1cn2c(n1)-c1ccccc1OCC2
Nc1nc(-c2cn3c(n2)-c2cc(C4CC4)ccc2OCC3)n(CC(F)(F)F)n1
CC(C)n1ncnc1-c1cc2n(n1)-c1cc(CN3CCNC(=O)C3)ccc1OCC2
CC(C)n1ncc(C#N)c1-c1cn2c(n1)-c1ccc(C(N)=O)cc1OCC2
CC(C)n1nc(N)nc1-c1cn2c(n1)-c1ccc(-c3cncc(F)c3)cc1OCC2
CC(C)n1ncnc1-n1cc2c(n1)-c1ccc(C3CN(CC(N)=O)C3)cc1OCC2
CC(C)n1ncnc1-c1cn2c(n1)-c1cnc(O[C@@H](C)C(N)=O)cc1OCC2
Cc1nc(-c2cn3c(n2)-c2ccc(-c4cn[nH]c4)cc2OCC3)n(C(C)C)n1
NC(=O)C1(Oc2ccc3c(c2)OCCn2cc(-c4ncnn4CC(F)(F)F)nc2-3)CC1
C[C@H](Oc1ccc2c(c1)OCCn1cc(-c3ncnn3-c3ccc(F)cc3F)nc1-2)C(N)=O
CC(C)n1ncnc1-c1cn2c(n1)-c1ccc([C@H]3CCNC[C@@H]3O)cc1OCC2
CC(C)n1ncnc1-c1cc2n(n1)-c1cc(C3CN(CCS(C)(=O)=O)C3)ccc1OCC2
CNC(=O)c1ccc2c(c1)OCCn1cc(-c3ncnn3-c3ccccc3Cl)nc1-2
CC(C)n1ncnc1-c1cn2c(n1)-c1cc(-c3ccc(Cl)cc3)ccc1OCC2
Cc1nc(-c2cn3c(n2)-c2ccc(C4CCN(C(C)(C)CO)CC4)cc2OCC3)n(C(C)C)n1
Cc1nc(-c2cn3c(n2)-c2cnc(N)cc2OCC3)n(C(C)C)n1
CC(C)n1ncnc1-c1cc2n(n1)-c1cc(C(=O)N3CCN(CC(F)(F)F)CC3)ccc1OCC2
CC(C)n1ncnc1-n1cc2c(n1)-c1ccc(-c3cn[nH]c3)cc1OCC2
CC(C)n1ncnc1-c1cn2c(n1)-c1ccc(C3CCN(CC(=O)N(C)C)CC3)cc1OCC2
CONC(=O)c1ccc2c(c1)OCCn1cc(-c3ncnn3C(C)C)nc1-2
Cc1nc(-c2cn3c(n2)-c2cnc(N4C[C@@H](O)C[C@H]4C(N)=O)cc2OCC3)n(C(C)C)n1
CC(C)n1ncnc1-c1cn2c(n1)-c1ccc(-c3ccc(Cl)cc3)cc1OCC2
CO[C@@H]1C[C@@H](C(N)=O)N(c2cc3c(cn2)-c2nc(-c4ncnn4C(C)C)cn2CCO3)C1
Cc1nc(-c2cn3c(n2)-c2cnc(N4CCCC4CN4CCCCC4)cc2OCC3)n(CC(F)(F)F)n1 (stereo not drawn)
CC(C)(Oc1ccc2c(c1)OCCn1cc(-c3ncnn3CC(F)(F)F)nc1-2)C(N)=O
CC(C)n1nc(N)nc1-c1cn2c(n1)-c1cc(C(F)(F)F)ccc1OCC2
Cc1nc(-c2cn3c(n2)-c2ccc(OCC(F)(F)F)cc2OCC3)n(C(C)C)n1
CC(C)n1ncnc1-c1cn2c(n1)-c1cnc(N3CC(O)C3)cc1OCC2
CC(C)n1nccc1-c1cn2c(n1)-c1ccc(CNC(N)=O)cc1OCC2
CC(C)n1ncnc1-c1cn2c(n1)-c1cnc(N3CC=C[C@H]3C(N)=O)cc1OCC2
Cc1nc(-c2cn3c(n2)-c2cnc(N4CC[C@H](O)[C@H]4C(N)=O)cc2OCC3)n(C(C)C)n1
CC(C)n1nc(N)nc1-c1cn2c(n1)-c1ccc(-c3cnn(CC(C)(C)O)c3)cc1OCC2
O=C(c1ccc2c(c1)-c1nc(-c3ncnn3CC(F)(F)F)cn1CCO2)N1CCOCC1
CC(C)n1nc(N)nc1-c1cn2c(n1)-c1ccc(C#N)cc1OCC2
CC(C)N1CCN(C(=O)c2ccc3c(c2)-c2nc(-c4ncnn4CC(F)(F)F)cn2CCO3)CC1
CNC(=O)CN1CC(c2ccc3c(c2)OCCn2cc(-c4ncnn4C(C)C)nc2-3)C1
CC(C)n1ncnc1-c1cn2c(n1)-c1ccc(C3CN(S(=O)(=O)CCN4CC(F)C4)C3)cc1OCC2
Nc1nc(-c2cn3c(n2)-c2ccc(-c4ccc(Cl)cc4)cc2OCC3)n(-c2ccccc2Cl)n1
CC(C)n1ncnc1-c1cn2c(n1)-c1cnc(N3CC[C@H](O)[C@H]3C(N)=O)cc1OCC2
CC(C)n1ncnc1-c1cn2c(n1)-c1cc(-c3cn[nH]c3)ccc1OCC2
CC(C)n1ncnc1-c1cn2c(n1)-c1ccc(C3CCOCC3)cc1OCC2
Clc1ccc(-c2ccc3c(c2)-c2nc(-c4ncnn4-c4ccccc4Cl)cn2CCO3)cc1
CC(C)n1ncnc1-c1cn2c(n1)-c1cc(NCC(O)CO)ncc1OCC2 (stereo not drawn)
CNC(=O)[C@@H]1CCCN1c1cc2c(cn1)-c1nc(-c3ncnn3C(C)C)cn1CCO2
